Experimental data: patent US9187497B2, “Substituted pyrido[3,2-e]pyrrolo[1,2-a]pyrazines as inhibitors of poly(ADP-ribose)polymerase (PARP)” (Takeda Phamaceutical Company Limited, priority 2009, dated 2015)

Assays:
[1] = molecular target: T1, catalytic domain of Human PARP (Homo sapiens, UniProt P09874); test: Biacore surface plasmon resonance affinity assay (dissociation constant KD); format: binding; details: pKD=-log(KD), KD in molar concentration; Biacore T100, 25° C.
T1 construct: The catalytic domain of Human PARP was cloned and prepared; made in house
T1 sequence (P09874 788-1014 limits assumed): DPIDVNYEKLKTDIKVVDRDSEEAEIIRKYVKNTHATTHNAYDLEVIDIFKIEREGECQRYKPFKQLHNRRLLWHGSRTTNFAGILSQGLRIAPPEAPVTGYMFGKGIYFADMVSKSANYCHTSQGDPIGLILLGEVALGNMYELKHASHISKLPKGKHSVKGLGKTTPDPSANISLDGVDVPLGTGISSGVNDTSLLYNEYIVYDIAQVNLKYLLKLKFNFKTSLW
Experimental: Dissociation Constant (KD) from Surface Plasmon Resonance
The catalytic domain of Human PARP was cloned and prepared as described in Kinoshita, T.; Nakanishi, I.; Warizaya, M.; Iwashita, A.; Kido, Y.; Hattori, K. and Fujii, T. 2006 FEBS Letters 556, 43-46. Purified enzyme was stored at −80° C. in 25 mM Tris(hydroxymethyl)aminomethane (Tris) pH 7.4, 150 mM NaCl, 2 mM dithiothreitol (DTT) at a concentration of 6 mg/ml.
Biacore affinity assays for test compounds were conducted on a Biacore T100 (GE Healthcare) as follows. A Series S Sensor Chip CM5 (part number BR-1006-68, GE Healthcare) was activated for amide coupling with an Amine Coupling Kit (part number BR-1000-50, GE Healthcare) as described by the manufacturer. The mobile phase buffer consisted of Biacore buffer HBS-P (part number BR-1003-68, GE Healthcare) supplemented with 1% v/v dimethylsulfoxide (DMSO), 0.5 mM Tris(2-carboxyethyl)phosphine hydrochloride (TCEP), and 5 mM MgCl2. Enzyme samples (2 μl/6 mg/ml) stored at −80° C. were diluted to 0.080 mg/ml with 10 mM 4-morpholineethanesulfonic acid (MES) pH 6.5 and then mounted on the activated Biacore CM5 chip at a flow rate of 10 μl/min for 240 seconds. When successfully mounted, a signal of approximately 8,000 reflective units was observed. Test compounds were diluted 9 times 2-fold serially in mobile phase buffer (listed above) at 1% v/v DMSO final to generate a concentration gradient bracketing their anticipated KDs. Biacore mounted PARP was given a 1 minute exposure (association phase) to various concentrations of test compounds to observe a steady state equilibrium or an on rate. The exposure was followed with a dissociation phase of 5 minutes. The association and dissociation phases were at a flow rate of 50 μl/min and a temperature of 25° C.
Parameters Rmax (response at saturation) and KD (binding constant) were calculated through a nonlinear least squares fitting of the equation to the data by use of the Biacore T100 analysis software.
Parameter optimization was through a nonlinear least squares analysis of the association phase Response=Rmax*(1−exp(−(kon[cmpd]+koff)*t)) and dissociation phase Response=[…] by use of the Biacore T100 analysis software. The binding constant KD was calculated from the definition KD=koff/kon

Jurkat cell line = test: PARP cellular chemopotentiation assay (MTS cell viability with and without TMZ); format: cell-based; details: ratio of EC50 for inhibition of cell viability without and with 100 μM TMZ; Jurkat cells, 96 hours of treatment
How it was run: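 Jurkat cells, 10,000/well, pre-cultured 24 h, then treated 96 h with serial compound dilutions (0.5% DMSO) with or without 100 μM TMZ. Viability by MTS conversion (OD490), normalized to DMSO controls; EC50 from curve fits, PF50 = EC50 without TMZ / EC50 with TMZ.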

PARP = molecular target: T2, PARP (Homo sapiens, UniProt P09874); test: PARP ELISA colorimetric assay of inhibition of PARP catalytic activity (IC50); format: biochemical; details: pIC50=-log(IC50), IC50 in molar concentration; ELISA-based PARP kit, 10 minutes of catalysis
T2 construct: purchased Trevigen 4684-096-01 (enzyme); kit 4684-096-K HT
T2 sequence (P09874 whole entry): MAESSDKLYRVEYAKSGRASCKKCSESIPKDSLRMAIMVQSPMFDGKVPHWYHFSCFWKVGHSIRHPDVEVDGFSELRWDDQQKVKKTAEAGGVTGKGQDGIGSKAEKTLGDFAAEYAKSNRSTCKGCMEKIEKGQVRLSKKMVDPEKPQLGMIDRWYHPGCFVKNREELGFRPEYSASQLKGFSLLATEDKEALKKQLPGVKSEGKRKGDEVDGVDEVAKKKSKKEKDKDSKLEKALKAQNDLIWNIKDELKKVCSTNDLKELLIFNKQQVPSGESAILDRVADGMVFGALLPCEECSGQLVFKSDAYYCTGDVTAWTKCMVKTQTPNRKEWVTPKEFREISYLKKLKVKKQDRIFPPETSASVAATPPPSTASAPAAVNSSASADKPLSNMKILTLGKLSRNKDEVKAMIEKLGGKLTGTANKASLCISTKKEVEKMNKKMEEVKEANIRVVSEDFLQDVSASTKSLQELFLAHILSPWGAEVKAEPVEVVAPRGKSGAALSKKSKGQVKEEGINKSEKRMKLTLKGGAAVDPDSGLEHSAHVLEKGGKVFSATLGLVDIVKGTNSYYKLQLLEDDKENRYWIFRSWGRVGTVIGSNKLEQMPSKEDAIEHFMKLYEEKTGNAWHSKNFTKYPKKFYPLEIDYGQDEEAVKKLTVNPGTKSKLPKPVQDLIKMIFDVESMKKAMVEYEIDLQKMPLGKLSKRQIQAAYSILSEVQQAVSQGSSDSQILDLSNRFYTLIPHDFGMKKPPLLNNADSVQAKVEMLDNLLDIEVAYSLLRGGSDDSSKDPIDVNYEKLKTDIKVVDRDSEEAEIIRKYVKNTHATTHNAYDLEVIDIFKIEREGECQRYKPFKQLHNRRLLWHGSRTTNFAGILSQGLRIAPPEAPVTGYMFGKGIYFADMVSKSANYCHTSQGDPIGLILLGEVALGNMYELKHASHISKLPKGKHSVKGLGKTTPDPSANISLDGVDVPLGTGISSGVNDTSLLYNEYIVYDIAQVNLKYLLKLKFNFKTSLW
How it was run: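 Human PARP was added as a 0.1 nM solution to histone-coated wells with compound for a 10-min ambient preincubation. The reaction was started with 100 μM NAD+ solution plus activated DNA and run 10 min. PAR formation was detected by anti-PAR ELISA, colorimetric. IC50 came from a 12-point, 3-fold gradient fitted by nonlinear least squares to a Hill equation.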

| Kd [1] | IC50 (PARP) | Structure (SMILES) | PF50 (Jurkat cell line) |
| --- | --- | --- | --- |
| 31.6 to 794 nM | – | O=C1Nc2cc(CN3CCC(c4ccc(Cl)cc4)CC3)cnc2N2CCC[C@@H]12 [Compound 3, (S)-3-((4-(4-chlorophenyl)piperidin-1-yl)methyl)-6a,7,8,9-tetrahydropyrido[3,2-e]pyrrolo[1,2-a]pyrazin-6(5H)-one] | >10 |
| ≥ 1000 nM | – | C[C@H]1C(=O)Nc2cc(CN3CCC(c4ccccc4)CC3)cnc2N1C [Compound 54, (S)-3,4-dimethyl-7-((4-phenylpiperidin-1-yl)methyl)-3,4-dihydropyrido[3,2-b]pyrazin-2(1H)-one] | – |
| ≥ 1000 nM | – | C[C@H]1C(=O)Nc2cc(CN3CCN(c4cccc(Cl)c4)CC3)cnc2N1C [Compound 58, (S)-7-((4-(3-chlorophenyl)piperazin-1-yl)methyl)-3,4-dimethyl-3,4-dihydropyrido[3,2-b]pyrazin-2(1H)-one] | – |
| ≥ 1000 nM | – | CC(C)N1c2ncc(CN3CCN(c4ccc(Cl)cc4)CC3)cc2NC(=O)[C@@H]1C [Compound 61, (S)-7-((4-(4-chlorophenyl)piperazin-1-yl)methyl)-4-isopropyl-3-methyl-3,4-dihydropyrido[3,2-b]pyrazin-2(1H)-one] | – |
| – | ≥ 50.1 nM | CCNC(=O)c1cc(F)c(N2CCN(Cc3cnc4c(c3)NC(=O)[C@@H]3CCCN43)CC2)cc1F [Compound 124, (S)—N-ethyl-2,5-difluoro-4-(4-((6-oxo-5,6,6a,7,8,9-hexahydropyrido[3,2-e]pyrrolo[1,2-a]pyrazin-3-yl)methyl)piperazin-1-yl)benzamide] | ≧0 |
| – | ≥ 50.1 nM | CCNC(=O)c1ccc(N2CCN(Cc3cnc4c(c3)NC(=O)[C@@H]3CCCN43)CC2)cc1F [Compound 125, (S)—N-ethyl-2-fluoro-4-(4-((6-oxo-5,6,6a,7,8,9-hexahydropyrido[3,2-e]pyrrolo[1,2-a]pyrazin-3-yl)methyl)piperazin-1-yl)benzamide] | ≧0 |
| – | 15.8 to 39.8 nM | CCNC(=O)c1ccc(N2CCN(Cc3cnc4c(c3)NC(=O)[C@@H]3CCCN43)CC2)c(F)c1 [Compound 126, (S)—N-ethyl-3-fluoro-4-(4-((6-oxo-5,6,6a,7,8,9-hexahydropyrido[3,2-e]pyrrolo[1,2-a]pyrazin-3-yl)methyl)piperazin-1-yl)benzamide] | >5000 |
| – | 15.8 to 39.8 nM | CCNC(=O)c1ccc(N2CCN(Cc3cnc4c(c3)NC(=O)[C@@H]3CCCN43)CC2)c(Cl)c1 [Compound 127, (S)-3-chloro-N-ethyl-4-(4-((6-oxo-5,6,6a,7,8,9-hexahydropyrido[3,2-e]pyrrolo[1,2-a]pyrazin-3-yl)methyl)piperazin-1-yl)benzamide] | >500 |
| – | ≥ 50.1 nM | CNS(=O)(=O)c1ccc(N2CCN(Cc3cnc4c(c3)NC(=O)[C@@H]3CCCN43)CC2)cc1 [Compound 128, (S)—N-methyl-4-(4-((6-oxo-5,6,6a,7,8,9-hexahydropyrido[3,2-e]pyrrolo[1,2-a]pyrazin-3-yl)methyl)piperazin-1-yl)benzenesulfonamide] | ≧0 |
| – | 15.8 to 39.8 nM | Cc1cc(C#N)ccc1N1CCN(Cc2cnc3c(c2)NC(=O)[C@@H]2CCCN32)CC1 [Compound 129, (S)-3-methyl-4-(4-((6-oxo-5,6,6a,7,8,9-hexahydropyrido[3,2-e]pyrrolo[1,2-a]pyrazin-3-yl)methyl)piperazin-1-yl)benzonitrile] | >500 |
| – | ≤ 12.6 nM | CNC(=O)c1ccc(N2CCN(Cc3cnc4c(c3)NC(=O)[C@@H]3CCCN43)CC2)c(F)c1 [Compound 131, (S)-3-fluoro-N-methyl-4-(4-((6-oxo-5,6,6a,7,8,9-hexahydropyrido[3,2-e]pyrrolo[1,2-a]pyrazin-3-yl)methyl)piperazin-1-yl)benzamide] | >500 |
| – | ≤ 12.6 nM | O=C(NC1CC1)c1ccc(N2CCN(Cc3cnc4c(c3)NC(=O)[C@@H]3CCCN43)CC2)c(F)c1 [Compound 132, (S)—N-cyclopropyl-3-fluoro-4-(4-((6-oxo-5,6,6a,7,8,9-hexahydropyrido[3,2-e]pyrrolo[1,2-a]pyrazin-3-yl)methyl)piperazin-1-yl)benzamide] | >2000 |
| – | 15.8 to 39.8 nM | CC(C)NC(=O)c1ccc(N2CCN(Cc3cnc4c(c3)NC(=O)[C@@H]3CCCN43)CC2)c(F)c1 [Compound 133, (S)-3-fluoro-N-isopropyl-4-(4-((6-oxo-5,6,6a,7,8,9-hexahydropyrido[3,2-e]pyrrolo[1,2-a]pyrazin-3-yl)methyl)piperazin-1-yl)benzamide] | >2000 |
| – | 15.8 to 39.8 nM | O=C(NC1CC1)c1ccc(N2CCN(Cc3cnc4c(c3)NC(=O)[C@@H]3CCCN43)CC2)c(Cl)c1 [Compound 134, (S)-3-chloro-N-cyclopropyl-4-(4-((6-oxo-5,6,6a,7,8,9-hexahydropyrido[3,2-e]pyrrolo[1,2-a]pyrazin-3-yl)methyl)piperazin-1-yl)benzamide] | >5000 |
| – | 15.8 to 39.8 nM | CC(C)NC(=O)c1ccc(N2CCN(Cc3cnc4c(c3)NC(=O)[C@@H]3CCCN43)CC2)c(Cl)c1 [Compound 135, (S)-3-chloro-N-isopropyl-4-(4-((6-oxo-5,6,6a,7,8,9-hexahydropyrido[3,2-e]pyrrolo[1,2-a]pyrazin-3-yl)methyl)piperazin-1-yl)benzamide] | >5000 |
| – | ≤ 12.6 nM | CNC(=O)c1ccc(N2CCN(Cc3cnc4c(c3)NC(=O)[C@@H]3CCCN43)CC2)c(Cl)c1 [Compound 136, (S)-3-chloro-N-methyl-4-(4-((6-oxo-5,6,6a,7,8,9-hexahydropyrido[3,2-e]pyrrolo[1,2-a]pyrazin-3-yl)methyl)piperazin-1-yl)benzamide] | >5000 |
| – | ≤ 12.6 nM | CCNC(=O)c1ccc(N2CCN(Cc3cnc4c(c3)NC(=O)[C@@H]3CCCN43)CC2)c(C)c1 [Compound 137, (S)—N-ethyl-3-methyl-4-(4-((6-oxo-5,6,6a,7,8,9-hexahydropyrido[3,2-e]pyrrolo[1,2-a]pyrazin-3-yl)methyl)piperazin-1-yl)benzamide] | >5000 |
| – | ≤ 12.6 nM | CNC(=O)c1ccc(N2CCN(Cc3cnc4c(c3)NC(=O)[C@@H]3CCCN43)CC2)c(C)c1 [Compound 141, (S)—N,3-dimethyl-4-(4-((6-oxo-5,6,6a,7,8,9-hexahydropyrido[3,2-e]pyrrolo[1,2-a]pyrazin-3-yl)methyl)piperazin-1-yl)benzamide] | >500 |

| Structure (SMILES) | Kd [1] | IC50 (PARP) | PF50 (Jurkat cell line) |
| --- | --- | --- | --- |
| C[C@H]1C(=O)Nc2cc(CN3CC=C(c4ccc(Cl)cc4)CC3)cnc2N1C [Compound 52, (S)-7-((4-(4-chlorophenyl)-5,6-dihydropyridin-1(2H)-yl)methyl)-3,4-dimethyl-3,4-dihydropyrido[3,2-b]pyrazin-2(1H)-one] | < 31.6 nM | – | ≧0 |
| C[C@H]1C(=O)Nc2cc(CN3CC=C(c4ccc(F)cc4)CC3)cnc2N1C [Compound 56, (S)-7-((4-(4-fluorophenyl)-5,6-dihydropyridin-1(2H)-yl)methyl)-3,4-dimethyl-3,4-dihydropyrido[3,2-b]pyrazin-2(1H)-one] | < 31.6 nM | – | ≧0 |
| CC(C)N1c2ncc(CN3CC=C(c4ccc(Cl)cc4)CC3)cc2NC(=O)[C@@H]1C [Compound 60, (S)-7-((4-(4-chlorophenyl)-5,6-dihydropyridin-1(2H)-yl)methyl)-4-isopropyl-3-methyl-3,4-dihydropyrido[3,2-b]pyrazin-2(1H)-one] | ≥ 1000 nM | – | – |
| Cc1cc(F)ccc1N1CCN(Cc2cnc3c(c2)NC(=O)[C@@H]2CCCN32)CC1 [Compound 130, (S)-3-((4-(4-fluoro-2-methylphenyl)piperazin-1-yl)methyl)-6a,7,8,9-tetrahydropyrido[3,2-e]pyrrolo[1,2-a]pyrazin-6(5H)-one] | – | 15.8 to 39.8 nM | >2000 |
